We go through 17 compounds from patent US5246928A, “Thiadiazinones for stimulating cardiac activity” (Smith Kline & French Laboratories Limited, priority 1991, dated 1993).

Series [1] concerns PDE (Peak III). Briefly: Inhibition of PDE (Peak III) from cat heart. The settings on record: read-out: IC50 × 10^-6, 1 μM cyclic AMP, pH 7.5, 37°.
Protocol: (§1) The enzyme was assayed by incubation at 37° for 4-30 min in 50 mM Tris, 5 mM MgCl2, pH 7.5 with [3-H] cyclic nucleotide (4×10^5 disintegrations min^-1) and [14-C] nucleotide 5' monophosphate (3×10^3 disintegrations min^-1). The assay was stopped by boiling, and the [3-H] […] The reaction mixture was diluted with 0.5 ml 100 mM HEPES (N-2-Hydroxyethylpiperazine-N'-2-ethanesulfonic acid), 100 mM NaCl, pH 8.5, and applied to the column. […] The recovery of product as judged by [14-C] recovery was approximately 80%. All assays were linear with time of incubation and concentration of enzyme over the range used in these experiments.
The test system of series [2] is left ventricular contractility. The series can be described thus: Cardiac Stimulant Activity - In vivo (Anaesthetised Cats): increase in left ventricular dp/dt max, i.v. The settings on record: Felis catus, iv, read-out: ED50 (dose to increase left ventricular dp/dt max by 50%), pretreated with ganglion blocker and propranolol. Also noted: species or system cat.
The test system of series [3] is left ventricular dp/dt max. The series can be described thus: Cardiac Stimulant Activity - In vivo (Conscious Dogs): left ventricular dp/dt max. More on the design: species or system dog. On the procedure:
Cardiac Stimulant Activity-In vivo (Conscious Dogs)
Oral administration caused positive inotropic responses at doses of 0.05 mg/kg and below.

The subject of series [4] is histamine-induced bronchoconstriction. Briefly: Bronchodilatation in vivo: histamine-induced bronchoconstriction in anaesthetised guinea-pigs. More on the design: species or system guinea-pig (Dunkin Hartley). The settings on record: guinea-pig, i.v.; in words. On the procedure: Male guinea-pigs of the Dunkin Hartley strain (530 g±6 g) were anaesthetised with Sagatal (pentobarbital sodium) (90 mg/kg i.p.). Airway resistance was measured using a modification of the classical Konzett-Rossler technique (Versuchsanordnung zu Untersuchungen an der Bronchialmuskulatur. Naunyn-Schmiedebergs Arch. Exp. Path. Pharmak., 195: pp 71-74, (1940)). A dose of histamine which gave approximately 150% increase in airway resistance was selected for i.v. administration. Bolus doses of the compound of Example 1 were administered (i.v.) one minute before the histamine challenge.
The threshold dose for this compound was 1×10^-8 mol/kg.

Series [5] concerns PDE (Peak I). The series can be described thus: Substrate kinetics of PDE (Peak I) from cat heart. The series is classed as biochemical. The settings on record: without calmodulin.
Protocol: as §1
[6] abbreviates: in words, in contrast to Example 1.

Turning to `O=C1NCC(c2ccc(-n3ccc(=O)cc3)cc2)=NN1` [Example 6, 6-[4-(4-Oxo-1,4-dihydropyridin-1-yl)phenyl]-4,5-dihydro-1,2,4-triazin-3(2H)-one], the half-maximal inhibitory concentration (IC50) in series [1] worked out at 1.75 µM. Also, the ED50 in series [2] came to 0.23 µmol/kg.

Take `CC1NC(=O)NN=C1c1ccc(-n2ccc(=O)cc2)cc1` (stereo not shown) [Example 7, 6-[4-(4-Oxo-1,4-dihydropyridin-1-yl)phenyl]-5-methyl-4,5-dihydro-1,2,4-triazin-3(2H)-one]: the 50% inhibitory concentration (IC50) in series [1] worked out at 0.54 µM. In addition, the ED50 in series [2] turned out to be 0.11 µmol/kg.

For `O=C1CC2CCc3cc(-n4ccc(=O)cc4)ccc3C2=NN1` (stereo not shown) [Example 13, 8-(4-Oxo-1,4-dihydropyridin-1-yl)-4,4a, 5,6-tetrahydrobenzo[h]cinnolin-3(2H)-one], in series [1], the IC50 was 6.6 µM. The ED50 in series [2] was 0.78 µmol/kg.

Take `CC1SC(=O)NN=C1c1ccc(-n2ccc(=O)cc2)cc1` (stereo not shown) [Example 10, 5-[4-(4-Oxo-1,4-dihydropyridin-1-yl)phenyl]-6-methyl-3H,6H-1,3,4-thiadiazin-2-one]: in series [1], the IC50 worked out at 0.44 µM. For the same compound, in series [2], the ED50 was 0.07 µmol/kg.

Consider `O=C1NN=C2c3ccc(-n4ccc(=O)cc4)cc3CC2S1` (stereo not shown) [Example 9, 7-(4-Oxo-1,4-dihydropyridin-1-yl)-9,9a-dihydroindeno[1,2-e][1,3,4]thiadiazin-2(3H)-one], for which the IC50 in series [1] was found to be 1.25 µM. In series [2], the ED50 was determined as 0.05 µmol/kg.

On to `O=C1COC(c2ccc(-n3ccc(=O)cc3)cc2)=NN1` [Example 5, 2-[4-(4-Oxo-1,4-dihydropyridin-1-yl)phenyl]-4H,6H-1,3,4-oxadiazin-5-one], for which, in series [1], the half-maximal inhibitory concentration (IC50) came to 4.33 µM. Further, in series [2], the ED50 came to 0.22 µmol/kg.

With `CC1CC(=O)NN=C1c1ccc(-n2ccc(=O)cc2)cc1` (stereo not shown) [Example 1, 5-Methyl-6-[4-(4-oxo-1,4-dihydropyridin-1-yl)phenyl]-4,5-dihydro-3(2H)-pyridazinone], the half-inhibitory concentration (IC50) in series [1] worked out at 0.41 µM. For the same compound, the “changes in blood pressure or heart rate” value in series [3] (conscious dogs) is reported as “without changes in blood pressure or heart rate”. Moreover, the “duration of positive inotropic responses” value in series [3] (conscious dogs, 3 hours = maximum duration of measurement) is recorded as “more than 3 hours”. The “'force-rate' selectivity” value in series [3] (conscious dogs, in words) is on record as “particularly beneficial”. Also, in series [4], the “effect on histamine-induced bronchoconstriction” value is listed as “reduced the histamine-induced bronchoconstriction”.

On to `O=C1CSC(c2ccc(-n3ccc(=O)cc3)cc2)=NN1` [Example 4, 2-[4-(4-Oxo-1,4-dihydropyridin-1-yl)phenyl]-4H,6H-1,3,4-thiadiazin-5-one], for which the IC50 in series [1] came out at 1.59 µM. In series [2], the ED50 was 0.06 µmol/kg.

`Nc1nc2c(ncn2[C@@H]2O[C@@H]3COP(=O)(O)O[C@H]3[C@H]2O)c(=O)[nH]1` [cyclic GMP]: in series [5], the Michaelis-Menten constant (Km) is 1.8 µM and the “Relative Vmax” value is 1.1.

For the compound `C[C@@H]1CC(=O)NN=C1c1ccc(-n2ccc(=O)cc2)cc1` [Example 16, (R)-5-Methyl-6-[4-(4-oxo-1,4-dihydropyridin-1-yl)phenyl]-4,5-dihydro-3(2H)-pyridazinone], the IC50 in series [1] was 0.23 µM.

Consider `C[C@H]1CC(=O)NN=C1c1ccc(-n2ccc(=O)cc2)cc1` [Example 17, (S)-5-Methyl-6-[4-(4-oxo-1,4-dihydropyridin-1-yl)phenyl]-4,5-dihydro-3(2H)-pyridazinone], for which the IC50 in series [1] came to 2.58 µM.

For the compound `O=C1CCC(c2ccc(-n3ccc(=O)cc3)cc2)=NN1` [Example 2, 6-[4-(4-Oxo-1,4-dihydropyridin-1-yl)phenyl]-4,5-dihydro-3(2H)-pyridazinone], the IC50 in series [1] amounted to 5.09 µM. Moreover, the ED50 in series [2] came out at 0.4 µmol/kg.

Take `O=c1ccn(-c2ccc(-c3c[nH]c(=O)cn3)cc2)cc1` [Example 11, 5-[4-(4-Oxo-1,4-dihydropyridin-1-yl)phenyl]-2(1H)-pyrazinone]: the IC50 in series [1] amounted to 2.64 µM.

In the case of `O=c1ccn(-c2ccc(-c3ccc(=O)[nH]n3)cc2)cc1` [Example 3, 6-[4-(4-Oxo-1,4-dihydropyridin-1-yl)phenyl]-3(2H)-pyridazinone], the IC50 in series [1] was 3.99 µM. For the same compound, the ED50 in series [2] was 0.47 µmol/kg.

With `CC12Cc3cc(-n4ccc(=O)cc4)ccc3C1=NNC(=O)S2` (stereo not shown) [Example 8, 7-(4-Oxo-1,4-dihydropyridin-1-yl)-9a-methyl-9,9a-dihydroindeno[1,2-e][1,3,4]thiadiazin-2(3H)-one], the IC50 in series [1] was 1.32 µM. The ED50 in series [2] turned out to be 0.07 µmol/kg.

As for `O=c1ccn(-c2ccc(-c3n[nH]c(=O)s3)cc2)cc1` [Example 14, 5-[4-(4-Oxo-1,4-dihydropyridin-1-yl)phenyl]-1,3,4-thiadiazol-2(3H)-one], the IC50 in series [1] amounted to 2.26 µM. Besides, the ED50 in series [2] worked out at 0.82 µmol/kg.

For the compound `Nc1cc(-c2ccncc2)c[nH]c1=O` [Amrinone, reference compound], in series [3] (setting [6]), the “activity in comparison with compound of Example 1” value was “less active” and the “duration in comparison with compound of Example 1” value is “shorter duration”.
